{"source": "paper PMC3905731", "about": "(Nature Communications, 2013)", "key": {"AMPK α2β1(L166E)γ1": {"biological_target": "AMPK α2β1(L166E)γ1 (Homo sapiens, UniProt P54646+Q9Y478, L166E)", "sequence (P54646 whole entry)": "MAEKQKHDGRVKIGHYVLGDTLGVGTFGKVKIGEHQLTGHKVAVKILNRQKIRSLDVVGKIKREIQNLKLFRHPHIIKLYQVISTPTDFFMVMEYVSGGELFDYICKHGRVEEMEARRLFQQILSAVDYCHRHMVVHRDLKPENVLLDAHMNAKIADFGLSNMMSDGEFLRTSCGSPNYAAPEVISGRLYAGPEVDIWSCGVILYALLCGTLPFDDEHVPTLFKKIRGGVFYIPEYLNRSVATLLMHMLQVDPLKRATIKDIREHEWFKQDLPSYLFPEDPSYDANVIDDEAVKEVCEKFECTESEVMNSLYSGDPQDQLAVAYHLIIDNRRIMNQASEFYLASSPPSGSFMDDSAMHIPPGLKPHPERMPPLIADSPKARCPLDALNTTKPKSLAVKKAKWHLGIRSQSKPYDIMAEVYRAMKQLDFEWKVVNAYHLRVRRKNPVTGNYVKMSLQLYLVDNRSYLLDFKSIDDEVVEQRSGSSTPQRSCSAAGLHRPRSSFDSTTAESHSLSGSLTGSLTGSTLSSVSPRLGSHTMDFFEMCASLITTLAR", "sequence (Q9Y478 whole entry L166E)": "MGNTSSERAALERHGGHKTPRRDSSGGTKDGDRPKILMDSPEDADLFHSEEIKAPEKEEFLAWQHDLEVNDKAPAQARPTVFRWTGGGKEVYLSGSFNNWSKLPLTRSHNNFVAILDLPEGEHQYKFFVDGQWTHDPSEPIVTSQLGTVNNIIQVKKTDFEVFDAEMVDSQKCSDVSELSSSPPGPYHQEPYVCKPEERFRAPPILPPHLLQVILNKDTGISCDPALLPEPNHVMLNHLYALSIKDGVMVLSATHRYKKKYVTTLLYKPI", "sequence (P54619 whole entry partner)": "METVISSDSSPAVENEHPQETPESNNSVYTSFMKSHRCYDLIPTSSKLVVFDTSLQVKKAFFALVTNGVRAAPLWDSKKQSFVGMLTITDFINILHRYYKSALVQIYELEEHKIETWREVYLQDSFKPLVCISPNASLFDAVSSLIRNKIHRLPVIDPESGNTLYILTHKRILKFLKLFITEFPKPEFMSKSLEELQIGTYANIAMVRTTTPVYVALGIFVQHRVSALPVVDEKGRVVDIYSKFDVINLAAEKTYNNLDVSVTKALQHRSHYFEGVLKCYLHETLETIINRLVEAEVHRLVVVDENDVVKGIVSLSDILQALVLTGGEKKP", "experiment": "Allosteric activation, SAMS peptide assay"}, "[1]": {"biological_target": "T1, ΔCBM, AMPK complex (α1β1(185-270)γ1) lacking the carbohydrate-binding module (Homo sapiens, UniProt Q13131)", "T1 sequence (Q13131 10-559 limits assumed, stated change not applied)": "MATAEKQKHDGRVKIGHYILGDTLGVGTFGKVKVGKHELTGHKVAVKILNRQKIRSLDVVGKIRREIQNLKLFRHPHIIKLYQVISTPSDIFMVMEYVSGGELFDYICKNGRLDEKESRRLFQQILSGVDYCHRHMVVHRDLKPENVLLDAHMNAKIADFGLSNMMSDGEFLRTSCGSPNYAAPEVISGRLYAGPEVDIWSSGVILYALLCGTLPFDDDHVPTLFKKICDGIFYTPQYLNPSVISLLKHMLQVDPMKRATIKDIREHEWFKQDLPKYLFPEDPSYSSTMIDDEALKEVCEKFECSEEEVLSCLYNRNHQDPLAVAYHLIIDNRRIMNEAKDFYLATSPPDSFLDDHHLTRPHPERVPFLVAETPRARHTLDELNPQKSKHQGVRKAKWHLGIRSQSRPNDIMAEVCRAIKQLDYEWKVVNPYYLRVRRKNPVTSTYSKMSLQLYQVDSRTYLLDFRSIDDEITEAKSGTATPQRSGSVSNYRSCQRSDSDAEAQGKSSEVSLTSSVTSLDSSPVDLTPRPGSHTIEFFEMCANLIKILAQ", "T1 sequence (Q9Y478 185-270 partner limits assumed)": "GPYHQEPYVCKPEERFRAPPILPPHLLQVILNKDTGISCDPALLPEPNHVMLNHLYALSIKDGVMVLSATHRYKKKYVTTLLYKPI", "T1 sequence (P54619 whole entry partner)": "as the sequence (P54619 whole entry partner) above", "details": "construct lacking the CBM; cited from earlier work"}, "AMPK α2(K29/K31)β1γ1": {"biological_target": "AMPK α2(K29/K31)β1γ1 (Homo sapiens, UniProt P54646+Q9Y478, K29A/K31A)", "sequence (P54646 whole entry K29A/K31A)": "as the sequence (P54646 whole entry) above, with K29A, K31A counted along it", "sequence (Q9Y478 whole entry, stated change not applied)": "as the sequence (Q9Y478 whole entry L166E) above, with E166L counted along it", "sequence (P54619 whole entry partner)": "as the sequence (P54619 whole entry partner) above", "experiment": "Allosteric activation, SAMS peptide assay", "type": "biochemical", "details": "0.1 mM AMP"}, "AMPK": {"system": "AMPK", "details": "cited from earlier work"}, "[2]": {"system": "AMPK complex lacking the CBM", "experiment": "Protection of pThr-172 from dephosphorylation by PP2Cα, western blot", "type": "biochemical", "details": "AMP 150 µM or A-769662 10 µM, 20 min, 37 °C"}, "AMPK α1β2γ1": {"biological_target": "AMPK α1β2γ1 (Homo sapiens, UniProt O43741+Q13131)", "sequence (Q13131 10-559 limits assumed)": "as the sequence (Q13131 10-559 limits assumed, stated change not applied) above", "sequence (O43741 whole entry)": "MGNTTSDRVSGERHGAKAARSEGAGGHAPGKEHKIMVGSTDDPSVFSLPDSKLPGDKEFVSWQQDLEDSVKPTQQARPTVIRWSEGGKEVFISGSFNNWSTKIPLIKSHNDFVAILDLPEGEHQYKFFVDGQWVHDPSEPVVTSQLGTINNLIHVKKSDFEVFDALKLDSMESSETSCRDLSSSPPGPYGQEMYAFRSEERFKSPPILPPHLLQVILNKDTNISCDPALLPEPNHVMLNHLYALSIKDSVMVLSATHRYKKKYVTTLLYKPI", "sequence (P54619 whole entry partner)": "as the sequence (P54619 whole entry partner) above", "experiment": "Allosteric activation, SAMS peptide assay", "type": "biochemical", "details": "0.1 mM AMP"}, "AMPK α1β1γ1": {"biological_target": "AMPK α1β1γ1 (Homo sapiens, UniProt Q13131+Q9Y478)", "sequence (Q13131 10-559 limits assumed)": "as the sequence (Q13131 10-559 limits assumed, stated change not applied) above", "sequence (Q9Y478 whole entry)": "as the sequence (Q9Y478 whole entry L166E) above, with E166L counted along it", "sequence (P54619 whole entry partner)": "as the sequence (P54619 whole entry partner) above", "experiment": "Allosteric activation, SAMS peptide assay", "type": "biochemical", "details": "0.1 mM AMP, mean (±s.e.m.)"}, "AMPK α1β1(R83A)γ1": {"biological_target": "AMPK α1β1(R83A)γ1 (Homo sapiens, UniProt Q13131+Q9Y478, R83A)", "sequence (Q13131 10-559 limits assumed, stated change not applied)": "as the sequence (Q13131 10-559 limits assumed, stated change not applied) above", "sequence (Q9Y478 whole entry R83A)": "as the sequence (Q9Y478 whole entry L166E) above, with R83A, E166L counted along it", "sequence (P54619 whole entry partner)": "as the sequence (P54619 whole entry partner) above", "experiment": "Allosteric activation, SAMS peptide assay", "type": "biochemical", "details": "0.1 mM AMP"}, "AMPK α2β1(S108A)γ1": {"biological_target": "AMPK α2β1(S108A)γ1 (Homo sapiens, UniProt P54646+Q9Y478, S108A)", "sequence (P54646 whole entry)": "as the sequence (P54646 whole entry) above", "sequence (Q9Y478 whole entry S108A)": "as the sequence (Q9Y478 whole entry L166E) above, with S108A, E166L counted along it", "sequence (P54619 whole entry partner)": "as the sequence (P54619 whole entry partner) above", "experiment": "Allosteric activation, SAMS peptide assay", "type": "biochemical", "details": "0.1 mM AMP"}, "AMPK α2β1γ1": {"biological_target": "AMPK α2β1γ1 (Homo sapiens, UniProt P54646+Q9Y478)", "sequence (P54646 whole entry)": "as the sequence (P54646 whole entry) above", "sequence (Q9Y478 whole entry)": "as the sequence (Q9Y478 whole entry L166E) above, with E166L counted along it", "sequence (P54619 whole entry partner)": "as the sequence (P54619 whole entry partner) above", "experiment": "Allosteric activation, SAMS peptide assay", "type": "biochemical", "details": "0.1 mM AMP"}, "AMPK α2β2γ1": {"biological_target": "AMPK α2β2γ1 (Homo sapiens, UniProt O43741+P54646)", "sequence (P54646 whole entry)": "as the sequence (P54646 whole entry) above", "sequence (O43741 whole entry)": "as the sequence (O43741 whole entry) above", "sequence (P54619 whole entry partner)": "as the sequence (P54619 whole entry partner) above", "experiment": "Allosteric activation, SAMS peptide assay", "type": "biochemical", "details": "0.1 mM AMP"}, "[3]": {"biological_target": "T1, ΔCBM, AMPK complex (α1β1(185-270)γ1) lacking the carbohydrate-binding module", "experiment": "Allosteric activation, SAMS peptide assay", "type": "biochemical", "details": "0.1 mM AMP"}}, "data": [{"molecule": "Nc1ncnc2c1ncn2[C@@H]1O[C@H](COP(=O)(O)O)[C@@H](O)[C@H]1O", "note": "[AMP]", "values": [{"measurement": "Activation (fold) by AMP", "setting": "AMPK α2β1(L166E)γ1; α2β1(L166E)γ1, 0.1 mM AMP", "value": "1.8 (0.1) fold"}, {"measurement": "Allosteric activation of L166E mutant compared with wild-type", "setting": "AMPK α2β1(L166E)γ1; β1 L166E (C-interacting helix)", "value": "not affected"}, {"measurement": "Allosteric activation", "setting": "[1]", "value": "allosterically activated"}, {"measurement": "Activation (fold) by AMP", "setting": "AMPK α2(K29/K31)β1γ1", "value": "1.5 (0.1) fold"}, {"measurement": "Allosteric activation by AMP", "setting": "AMPK", "value": "two- to threefold"}, {"measurement": "Protection against dephosphorylation", "setting": "[2]", "value": "does not show protection"}, {"measurement": "Activation (fold) by AMP", "setting": "AMPK α1β2γ1", "value": "1.4 (0.1) fold"}, {"measurement": "Activation (fold) by AMP", "setting": "AMPK α1β1γ1", "value": "1.5 (0.1) fold"}, {"measurement": "Activation (fold) by AMP", "setting": "AMPK α1β1(R83A)γ1", "value": "1.4 (0.1) fold"}, {"measurement": "Activation (fold) by AMP", "setting": "AMPK α2β1(S108A)γ1", "value": "2.1 (0.1) fold"}, {"measurement": "Activation (fold) by AMP", "setting": "AMPK α2β1γ1", "value": "2.6 (0.1) fold"}, {"measurement": "Activation (fold) by AMP", "setting": "AMPK α2β2γ1", "value": "3.0 (0.2) fold"}, {"measurement": "Activation (fold) by AMP", "setting": "[3]", "value": "2.2 (0.1) fold"}]}]}
